Data: article PMC9027509, “Modulation of Paracellular-like Drug Transport across an Artificial Biomimetic Barrier by Osmotic Stress-Induced Liposome Shrinking” (Pharmaceutics, 2022)

Experiments:
Assay type in all cases: in vitro ADME
[1] = Permeation across PermeaPad barrier, reversed Franz cell setup, after NaCl pretreatment; conditions: for Increase of apparent permeability across the PermeaPad® barrier upon hypo-osmotic pretreatment: hypo-osmotic pretreatment (soaking in hypotonic medium); for Papp: permeation in 300 mOsm PBS pH 6.5, 37 °C, mean ± SD, read-out: Permeability across PermeaPad®; for Increase of permeability in PBS across PermeaPad®: pretreated with NaCl solutions of 50, 150, or 900 mOsm/kg compared to 300 mOsm/kg; for Change of permeability across PermeaPad® after hyper-osmotic pretreatment (in words): pretreatment with 900 mOsm/kg NaCl solution versus 300 mOsm, p < 0.05; for Papp, mean: supplement raw data, mean of replicates A-C
Protocol: (§1) During these studies, phosphate-buffered saline (PBS) was used as the acceptor medium and for the preparation of donor media for permeation experiments. The liposomes were allowed to form within the barrier by soaking the dry sandwich barrier (PermeaPad) in hypo-, iso-, or hyper-osmotic media and compared to the PBS by using NaCl solutions of different osmolalities. PBS was prepared by dissolving 35 mM sodium phosphate dibasic dihydrate and 75 mM sodium phosphate monobasic monohydrate in water. Then, the pH was adjusted to 6.5 by adding 0.1 M HCl or 0.1 M NaOH. Finally, the osmolality was measured on a semi-micro osmometer K-7400 from KNAUER Wissenschaftliche Geräte GmbH (Berlin, Germany), and NaCl was added to obtain an osmolality of 300 mOsm. Solutions of NaCl were prepared by dissolving NaCl in purified water to obtain osmolalities of 50, 150, 250, 300, 350, 450 and 900 mOsm.
(§2) The acyclovir solution was prepared by dissolving 1 mg/mL acyclovir in PBS. […] The stock of calcein was prepared by dissolving 2.8 g calcein in 30 mL water before adjusting the pH to 6.5 with 4 M NaOH (~20 mL), and the osmolality of the stock was adjusted to 300 mOsm with NaCl. […] The saturated celecoxib suspensions were prepared by suspending 1 mg/mL of celecoxib in PBS. The suspension was then sonicated for 10 min and left in the shaking water bath at 50 rpm and 37 °C for 40 h before starting the permeation experiments.
(§3) For the permeation experiments, we used the reversed Franz cell setup from Permegear (Hellertown, PA, USA) with the donor in the bottom chamber (8 mL) and the acceptor in the top chamber (2 mL). The two compartments were either separated by PermeaPad® or a sandwich consisting of two pieces of the support sheet representing the support layer of PermeaPad® (with no lipids). The barriers were kindly donated by InnoMe GmbH (Espelkamp, Germany). A cylindrical stir bar (2 mm diameter × 8 mm length) was spinning at 500 rpm at the bottom of the donor compartment. The temperature of the Franz cells was kept constant at 37 °C by a circulating water system.
(§4) Prior to the permeation experiments, the barrier was exposed to NaCl solutions ranging from 50 to 900 mOsm for 30 min by simply adding 2 mL of the NaCl solution to the top compartment. The NaCl solutions were removed from the top compartment right before initiating the permeation experiments.
(§5) For the permeation experiments, the system was kept assembled after the NaCl pretreatment, and the bottom compartment was filled with 8 mL of donor solution/suspension, followed by the addition of 2 mL PBS to the top compartment. […] All samples were replaced by the same volume of PBS to keep the acceptor volume constant and to maintain sink conditions. Before and after experiments, donor samples were withdrawn to keep track of the mass balance (see the Supplementary Materials).
(§6) The column temperature was 40 °C during measurement. […] All quantification was with a freshly prepared calibration curve in the relevant range.
(§7) The flux was determined by plotting the cumulative amount of a drug compound permeation (dQ) normalized to the permeation area (A) (1 cm^2) against time (dt), with the flux (J) equal to the slope. (1) J=dQ/A·dt
(§8) We assumed that the change in the donor concentration over the experiments was negligible. The apparent permeability (Papp) was equal to the flux normalized to the starting donor concentration (C0). (2) Papp=J/C0

[2] = Permeation across lipid-free support sheets (support layer of PermeaPad), reversed Franz cell setup; conditions: for Papp: 300 mOsm PBS pH 6.5, 37 °C, mean ± SD, read-out: Permeability across support layer; for Papp, mean: supplement raw data, Support sheet, 30 min pretreatment, mean of replicates A-C
Protocol: as §1, §2, §3, §4, §5, §6, §7, §8

[3] = Permeability across the lipid layer of PermeaPad calculated from Papp and Psup (Equation 3); conditions: for Permeation across lipid layer, fold higher with 50 mOsm/kg pretreatment: 50 mOsm/kg versus 300 mOsm/kg NaCl pretreatment; for Papp: not told, calculated 1/Papp=1/Plip+1/Psup
Excerpt: The permeation across the lipid layer (Plip) has been calculated using Equation (3) (Di Cagno et al., 2015). The inverse of each permeability constant represents the resistance. The sum of the resistance of the lipid layer and the support layer (Psup) composing the PermeaPad® barrier gives the resistance of the whole barrier. (3) 1/Papp=1/Plip+1/Psup

[4] = pH 6.5, barrier pretreated 30 min with 50 mOsm/kg NaCl solution
[5] = pH 6.5, barrier pretreated 30 min with 300 mOsm/kg NaCl solution
[6] = PermeaPad, osmolality 50, 30 min pretreatment
[7] = PermeaPad, osmolality 150, 30 min pretreatment
[8] = PermeaPad, osmolality 300, 30 min pretreatment
[9] = PermeaPad, osmolality 450, 30 min pretreatment
[10] = PermeaPad, osmolality 900, 30 min pretreatment
[11] = pH 6.5, pretreated 30 min with 50 mOsm/kg NaCl solution
[12] = pH 6.5, pretreated 30 min with 300 mOsm/kg NaCl solution
[13] = pH 6.5, pretreatment with 50 mOsm/kg NaCl solution
[14] = pH 6.5, pretreatment with 300 mOsm/kg NaCl solution

Nc1nc2c(ncn2COCCO)c(=O)[nH]1 [Acyclovir, acyclovir]
Increase of apparent permeability across the PermeaPad® barrier upon hypo-osmotic pretreatment [1]: ~1.7 fold
Papp [1, 4]: 4.07 ± 0.6 ×10⁻⁶ cm/s
Papp [1, 5]: 2.52 ± 0.33 ×10⁻⁶ cm/s
Increase of permeability in PBS across PermeaPad® [1]: 1.5–2 fold
Change of permeability across PermeaPad® after hyper-osmotic pretreatment (in words) [1]: increased significantly
Papp, mean [1, 6]: 4.068 10-6
Papp, mean [1, 7]: 3.864 10-6
Papp, mean [1, 8]: 2.527 10-6
Papp, mean [1, 9]: 3.76 10-6
Papp, mean [1, 10]: 4.675 10-6
Papp [2, 11]: 32.7 ± 1.87 ×10⁻⁶ cm/s
Papp [2, 12]: 33.2 ± 1.79 ×10⁻⁶ cm/s
Papp, mean ([2]; osmolality 50): 32.67 10-6
Papp, mean ([2]; osmolality 300): 33.19 10-6
Permeation across lipid layer, fold higher with 50 mOsm/kg pretreatment [3]: 1.7 fold
Papp [3, 13]: 4.71 ± 0.78 ×10⁻⁶ cm/s
Papp [3, 14]: 2.74 ± 0.38 ×10⁻⁶ cm/s

Cc1ccc(-c2cc(C(F)(F)F)nn2-c2ccc(S(N)(=O)=O)cc2)cc1 [Celecoxib, celecoxib]
Change of permeability across PermeaPad® with different pretreatments (in words) ([1]; NaCl pretreatment solutions from 50 to 900 mOsm/kg compared to 300 mOsm/kg): no significant changes
Change of permeation across PermeaPad® upon hypo-osmotic pretreatment (in words) ([1]; hypo-osmotic pretreatment): remained unchanged
Papp [1, 4]: 17.9 ± 7.48 ×10⁻⁶ cm/s
Papp [1, 5]: 15.9 ± 4.99 ×10⁻⁶ cm/s
Papp, mean [1, 6]: 17.95 10-6
Papp, mean [1, 7]: 12.5 10-6
Papp, mean [1, 8]: 15.92 10-6
Papp, mean [1, 9]: 16.62 10-6
Papp, mean [1, 10]: 17.85 10-6
Papp [2, 11]: 46.3 ± 2.23 ×10⁻⁶ cm/s
Papp [2, 12]: 46.2 ± 2.74 ×10⁻⁶ cm/s
Papp, mean ([2]; osmolality 50): 46.3348 10-6
Papp, mean ([2]; osmolality 300): 46.16 10-6
Papp [3, 13]: 34.2 ± 18.1 ×10⁻⁶ cm/s
Papp [3, 14]: 26.2 ± 11.2 ×10⁻⁶ cm/s

O=C(O)CN(CC(=O)O)Cc1cc2c(cc1O)Oc1cc(O)c(CN(CC(=O)O)CC(=O)O)cc1C21OC(=O)c2ccccc21 [Calcein, calcein]
Difference in permeation across PermeaPad® between 2 and 30 min pretreatment ([1]; 50 and 300 mOsm/kg NaCl solutions, p > 0.05): no significant differences
Increase of apparent permeability across the PermeaPad® barrier upon hypo-osmotic pretreatment [1]: approximately 2.0 fold
Papp [1, 4]: 0.61 ± 0.04 ×10⁻⁶ cm/s
Papp [1, 5]: 0.35 ± 0.01 ×10⁻⁶ cm/s
Increase of permeability in PBS across PermeaPad® [1]: 1.5–2 fold
Change of permeability across PermeaPad® after hyper-osmotic pretreatment (in words) [1]: increased significantly
Papp, mean ([1]; PermeaPad (2 min pretreatment), osmolality 50): 0.5524 10-6
Papp, mean ([1]; PermeaPad (2 min pretreatment), osmolality 300): 0.3418 10-6
Papp, mean [1, 6]: 0.6055 10-6
Papp, mean [1, 7]: 0.6047 10-6
Papp, mean ([1]; PermeaPad, osmolality 250, 30 min pretreatment): 0.3074 10-6
Papp, mean [1, 8]: 0.3505 10-6
Papp, mean ([1]; PermeaPad, osmolality 350, 30 min pretreatment): 0.3633 10-6
Papp, mean [1, 9]: 0.3884 10-6
Papp, mean [1, 10]: 0.5604 10-6
Papp [2, 11]: 2.51 ± 0.3 ×10⁻⁶ cm/s
Papp [2, 12]: 2.84 ± 0.54 ×10⁻⁶ cm/s
Papp, mean ([2]; osmolality 50): 2.509 10-6
Papp, mean ([2]; osmolality 300): 2.835 10-6
Permeation across lipid layer, fold higher with 50 mOsm/kg pretreatment [3]: 2.0 fold
Papp [3, 13]: 0.8 ± 0.07 ×10⁻⁶ cm/s
Papp [3, 14]: 0.4 ± 0.02 ×10⁻⁶ cm/s
